Results: patent publication US20230193199A1, “Methods for Printing Functional Human Neural Tissue” (Wisconsin Alumni Research Foundation, priority 2021, published 2023)

What was measured:
glutamate receptor = experiment: whole-cell patch-clamp recording of sEPSCs; type: cell-based, human; conditions: holding potential −70 mV; CNQX 10 μM applied with D-APV 50
Experimental: Whole-cell patch-clamp recordings were made from human PSC-derived cortical glutamatergic and GABAergic neurons. The bath solution consisted of 135 mM NaCl, 3 mM KCl, 2 mM CaCl2, 1 mM MgCl2, 10 mM HEPES, 11 mM glucose, 10 mM sucrose, pH 7.4. Recording pipettes were filled with an intracellular solution containing 120 mM potassium D-gluconate, 1 mM ethylene glycol-bis (β-aminoethyl ether) N,N,N′,N′-tetraacetic acid (EGTA), 10 mM 4-(2-hydroxyethyl)piperazine-1-ethanesulfonic acid (HEPES), 4 mM ATP-Mg, 0.3 mM GTP-Na, 10 mM phosphocreatine, 0.1 mM CaCl2, 1 mM MgCl2, pH 7.2, 280-290 mOsm/L. Briefly, the neurons were held at −70 mV to record the Na+/K+ channel activities with voltage-clamp model. […] Spontaneous excitatory postsynaptic currents (sEPSCs) and spontaneous inhibitory currents (sIPSCs) were recorded in gap-free mode at a holding potential of −70 mV and 0 mV, respectively. sEPSCs were blocked by application of the glutamate receptor antagonist 6-Cyano-7-nitroquinoxaline-2,3-dione (CNQX, 10 μM) and D-(−)-2-amino-5-phosphonopentanoic acid (D-APV, 50 sIPSCs were blocked by application of the GABAA receptor antagonist bicuculline (10 An Olympus BX51WI microscope was used to visualize neurons. A MultiClamp 700B amplifier (Axon instruments, Molecular Devices, Sunnyvale, Calif., USA) was used to investigate the voltage clamp and current clamp recordings. […]

[1] = test system: hPSC-derived cortical neural progenitor cells (NPCs); experiment: Live/Dead assay of hPSC-NPCs cultured in fibrin gel; type: cell-based, human
Experimental: For cell culturing in the fibrin gel, dissociated hPSC-NPCs at a density of 1×10^6 were mixed with fibrinogen at the following concentrations (1, 2.5, 5, 10 and 20 mg/mL) as show in FIG. 5. 0.5 mg/mL aprotinin was added for preventing gel degradation. 1 μL of the fibrinogen-laden cells were dropped on the poly-O coated plates at RT (room temperature). 1 different concentrations of thrombin (0.5, 1, 2.5, 5 and 10 U) solution with 2.5 mM CaCl2 were then added and mixed with the cells-fibrinogen solution. Fresh medium was added after gelation. Cells were encapsulated in the fibrin gel constructs and cultured at 37° C. incubator for characterization. […] The cells, however, tended to aggregate at higher fibrinogen levels. Thus, 2.5 or 5 mg/mL fibrinogen with 0.5 or 1 U thrombin was used for identifying an optimal gelation time.
The cell viability was measured by Live/Dead assay. Briefly, Live/Dead® staining kit (Molecular Probes) was used to assess cell viability. Immediately after harvesting, the cells were incubated in DMEM/F12 containing 1 μM calcein AM and 2 μM ethidium homodimer I for 30 min. […] The number of live (green) and dead (red) cells were counted in each field using Cell Counter in Image-J. The live/dead cell numbers from the five images of one sample were averaged to give each data point and five samples were used to determine the viability.

Molecule	spontaneous excitatory postsynaptic currents (sEPSCs) (glutamate receptor)	further results
N#Cc1cc2c(cc1[N+](=O)[O-])=NC(=O)C(=O)N=2 [CNQX, 6-Cyano-7-nitroquinoxaline-2,3-dione]	blocked	
N[C@H](CCCP(=O)(O)O)C(=O)O [D-APV, D-(−)-2-amino-5-phosphonopentanoic acid]	blocked	
fibrinogen		cell viability (percent of live cells to total cells) ([1]; increasing fibrinogen concentrations at fixed low thrombin (0.5 U)): not influenced
thrombin		cell viability (percent of live cells to total cells) ([1]; increasing thrombin concentrations at fixed fibrinogen 2.5 mg/ml): decreased with increasing thrombin concentrations
